From patent US20220031719A1, “ANTIVIRAL THERAPEUTIC DRUG COMBINATIONS” (THE UNIVERSITY OF TULSA, priority 2020, published 2022)
“Also recorded” adds a separate entry of the source. Like-named read-outs stand apart in the source and are kept apart here.

Key:
Type in all cases: cell-based
h293 cells = test: ATP levels by CellTiterGlo in h293 cells (inhibition assays)
Protocol: Drugs. All drugs were obtained from Sigma except diphenhydramine (purchased commercially as 25 mg allergy tablets) and famotidine (purchased commercially as 10 mg acid controller tablets). All compounds were dissolved in ultrapure water except quinine, which was re-suspended in ethanol. Rotenone was prepared as a concentrated solution in 100% DMSO, then diluted to a working stock (125 μM) in water (final concentration 2.5 μM). 2-DG was used at a final concentration of 20 mM. Diphenhydramine and famotidine were crushed by mortar and pestle, re-suspended in H2O and rotated at room temperature for 1 h. Insoluble material (e.g., cellulose) was removed by centrifugation. […] Cigar smoke was generated from commercially available Backwoods brand containing nicotine.
Cell culture. The following immortalized cells were obtained from the American Tissue Culture Collection: H293 kidney epithelial cells, HDFs (human diploid fibroblasts immortalized by telomerase expression), and U549 lung carcinoma cells. Cells were maintained in DMEM (Fisher Scientific) supplemented with 10% fetal bovine serum (FBS; Atlas Biologicals, Fort Collins, Colo.). DMEM media contained high glucose (25 mM) and the standard amino acids as carbon sources. Cultures were maintained in a 37° C. water jacketed incubator with 5% CO2. When needed cells were removed from the plate using trypsin. It is important to note that FBS and many commercial preparations of trypsin contain glucose. Unless indicated otherwise, after removal, cells were pelleted by centrifugation (2K 4 min room temperature), aspirated, and re-suspended in the desired media. Other media used in this study were DMEM no glu (Fisher Scientific), which is identical to DMEM except it lacks glucose. L-15 media (Fisher Scientific) contains amino acids but replaces glucose with 5 mM galactose. It also lacks sodium bicarbonate (NaHCO3), which was added to the same concentration as in DMEM (44 mM) in all experiments except FIGS. 4A and 4B. Its presence is essential to buffer the media and prevent its acidification in the CO2 incubator. A DMEM type media lacking sodium bicarbonate was also generated using individual components obtained from Fisher Scientific and Sigma. This media was used for FIG. 4D, where its pH was varied by the addition of 500 mM Hepes pH 7-10 (25 mM final concentration).
Inhibition assays. In general, short term immediate effects of the indicated drugs on ATP levels were analyzed by removing growing cells from a p100 mm plate using trypsin, washing with PBS, and re-suspending in the indicated media. After counting using a hemocytometer, 25-50k cells in […] media were distributed in a 96 well white flat bottom, non-treated polystyrene assay plate. In some cases, media was supplemented by the addition of glucose (20 mM final). The plate was typically incubated for 30 min at 37° C. in a CO2 incubator to allow metabolic pathways to adapt to the media. Drugs when then added in the order and at the concentration indicated for each figure, followed by shaking (700 RPM 10 sec), and returned to the incubator. Incubation times were generally between 1 and 2 h so that direct and immediate effects on ATP production could be evaluated. In most cases samples were run in duplicate or triplicate and the standard deviation determined. FIG. 1B is a more traditional drug analysis, in that cells were seeded in a tissue culture treated 96-well plate, allowed to attach overnight, then treated with 10 μL CellTiterBlue resazurin reagent (Promega) to determine effects on viability. Plates were shaken and incubated in the dark for 1-4 h, followed by excitation at 560 nm and determination of fluorescence emitted at 590 nm using a Tecan Safire plate reader. […] Luciferase activity alone (FIG. 1C) was measured by adding 10 CellTiterGlo reagent to 100 μL DMEM media in the absence of cells. […] The luminescence was determined immediately and at later times as described above.

[1] = test system: Human Diploid Fibroblasts (HDFs); test: ATP levels by CellTiterGlo in Human Diploid Fibroblasts; settings: HDFs in DMEM, in the presence of 2-DG
Protocol: Cell culture. […] Cells were maintained in DMEM (Fisher Scientific) supplemented with 10% fetal bovine serum (FBS; Atlas Biologicals, Fort Collins, Colo.). DMEM media contained high glucose (25 mM) and the standard amino acids as carbon sources. Cultures were maintained in a 37° C. water jacketed incubator with 5% CO2. When needed cells were removed from the plate using trypsin. […] Unless indicated otherwise, after removal, cells were pelleted by centrifugation (2K 4 min room temperature), aspirated, and re-suspended in the desired media.
Inhibition assays. In general, short term immediate effects of the indicated drugs on ATP levels were analyzed by removing growing cells from a p100 mm plate using trypsin, washing with PBS, and re-suspending in the indicated media. After counting using a hemocytometer, 25-50k cells in 100 mL media were distributed in a 96 well white flat bottom, non-treated polystyrene assay plate. In some cases, media was supplemented by the addition of glucose (20 mM final). […] Incubation times were generally between 1 and 2 h so that direct and immediate effects on ATP production could be evaluated. In most cases samples were run in duplicate or triplicate and the standard deviation determined. […] The luminescence was determined immediately and at later times as described above.

Red blood cells = test: ATP levels by CellTiterGlo in red blood cells; settings: RBCs in DMEM containing 5 mM glucose
[2] = h293 cells in DMEM containing amino acids but lacking glucose, drug alone
[3] = h293 cells in DMEM, in the presence of 2-DG (forced TCA/ETC), drug 2 h
[4] = h293 cells in DMEM, in the presence of rotenone (forced glycolysis), drug 2 h
[5] = h293 cells in L-15 media (galactose, plus NaHCO3), no glucose, drug titration
[6] = h293 cells in L-15 media plus glucose, drug titration
[7] = h293 cells in DMEM (glucose and amino acids), drug alone, short exposure (2 h), no 2-DG or rotenone
[8] = h293 cells in DMEM no glucose (amino acids only), metabolic inhibitors for 1 h
[9] = h293 cells in DMEM with glucose, metabolic inhibitors for 1 h (2-DG 20 mM, rotenone 2.5 μM)
[10] = h293 cells in L-15 media (galactose instead of glucose), metabolic inhibitors
[11] = h293 cells in L-15 media lacking NaHCO3 (acidified), 37° C. CO2 incubator

CCN(CCO)CCCC(C)Nc1ccnc2cc(Cl)ccc12 (stereo not shown) [HCQ, hydroxychloroquine]
effect on ATP production (h293 cells; [2]): inhibited ATP production | effect on ATP levels (h293 cells; [3]): synergistic effect that dramatically reduced ATP production | effect on ATP levels (h293 cells; [4]): no effect on ATP levels | effect on ATP production (h293 cells; [5]): inhibited ATP production; also recorded: very sensitive | effect on ATP production (h293 cells; [6]): prevented inhibition

CN(C)CCOC(c1ccccc1)c1ccccc1 [diphenhydramine]
effect on ATP levels (h293 cells; [7]): minimal effect on ATP production | effect on ATP levels (h293 cells; [3]): strongly inhibited; also recorded: specifically inhibited mitochondrial ATP production

CN1CCCC1c1cccnc1 (stereo not shown) [nicotine]
effect on ATP levels (h293 cells): specificity for inhibiting mitochondrial ATP production

C=C(C)[C@H]1Cc2c(ccc3c2O[C@@H]2COc4cc(OC)c(OC)cc4[C@@H]2C3=O)O1 [rotenone]
effect on ATP production (h293 cells; [8]): complete inhibition | effect on ATP levels (h293 cells; [9]): no effect | effect on ATP production (h293 cells; [10]): completely inhibited | effect on ATP production (h293 cells; [11]): sensitive

CCN(CC)CCCC(C)Nc1ccnc2cc(Cl)ccc12 (stereo not shown) [CQ, chloroquine]
effect on ATP levels [1]: confirmed | effect on ATP production via glycolysis (Red blood cells): no effect on ATP production | effect on ATP levels (h293 cells; [7]): no apparent effect on ATP levels | effect on ATP production (h293 cells; [2]): inhibited ATP production | effect on ATP levels (h293 cells; h293 cells in DMEM no glucose with glucose added back): minimal effect on ATP levels | effect on ATP levels (h293 cells; [3]): markedly reduced; also recorded: synergistic effect that dramatically reduced ATP production | effect on ATP levels (h293 cells; [4]): no effect on ATP levels | effect on ATP production (h293 cells; [5]): inhibited ATP production; also recorded: very sensitive | effect on ATP production (h293 cells; [11]): no CQ inhibition | effect on ATP production (h293 cells; [6]): prevented inhibition | time course of inhibition of ATP production (h293 cells; h293 cells in L-15 media plus sodium bicarbonate, 250 μM CQ): increased dramatically over time | ATP production after order of addition (h293 cells; h293 cells in media containing glucose treated with CQ, then 2-DG added): re-established inhibition of ATP production; also recorded: CQ inhibition is revealed in the presence of 2-DG | ATP levels after order of addition (h293 cells; h293 cells pre-incubated with CQ 2 h in media lacking glucose, then glucose added for 1 h): re-established ATP levels; also recorded: glucose overcomes CQ inhibition | pH dependency of inhibition of ATP production (h293 cells; h293 cells, 1 h in DMEM type media lacking NaHCO3 adjusted to pH 7 to 10 with 25 mM Hepes, then L-15): dramatic increase in CQ inhibition with increasing pH; also recorded: Increasing media pH increases ability of CQ to inhibit ATP production | effect on ATP levels (CellTiterGlo) (h293 cells; h293 cells, overnight titration, same cells as CellTiterBlue): clear CQ dependent decrease

NC(N)=Nc1nc(CSCCC(N)=NS(N)(=O)=O)cs1 [famotidine]
effect on ATP levels (h293 cells; [7]): no effect on ATP production | effect on ATP levels (h293 cells; [3]): no effect on ATP production

C=C[C@H]1C[N@@]2CC[C@H]1C[C@H]2[C@H](O)c1ccnc2ccc(OC)cc12 [Quinine, quinine]
effect on ATP levels (h293 cells; [3]): much more dramatic in the presence of 2-DG

O=CC[C@@H](O)[C@H](O)[C@H](O)CO [2-DG, 2-deoxy-D-glucose]
effect on ATP production (h293 cells; [8]): significant inhibition | effect on ATP levels (h293 cells; [9]): minimal effect on ATP levels | effect on ATP production (h293 cells; [10]): partially inhibited | effect on ATP production (h293 cells; [11]): sensitive
